Experimental data: US20250044299A1, “PROTEIN STABILITY ASSAY” (Medicines Discovery Catapult Limited, priority 2021, published 2025)

What was measured:
p38α = target: T1, p38α (Homo sapiens, UniProt Q16539); experiment: Chemical protein stability assay, single-well per test compound format, AlphaLISA, HEK293T cell lysate (Example 9); format: binding; settings: 10 μM compound, 384-well single wells
T1 construct: endogenous in cells; host or cells: HEK293T
Method: For signal detection an antibody detection mix was made up no more than 20 minutes prior to use.

p38α MAPK [1] = target: T2, p38α MAPK (Homo sapiens, UniProt Q16539); experiment: Protein stability assay, HeLa p38α HiBiT cell lysate, HiBiT endpoint compared with AlphaLISA endpoint (Example 7); format: binding; set-up: lysate of HeLa p38α MAPK-linked HiBiT® endogenously tagged cells; endogenous in cells; host or cells: HeLa p38α HiBiT (genome-edited, endogenously tagged)
Target sequence in this assay (Q16539 2-360): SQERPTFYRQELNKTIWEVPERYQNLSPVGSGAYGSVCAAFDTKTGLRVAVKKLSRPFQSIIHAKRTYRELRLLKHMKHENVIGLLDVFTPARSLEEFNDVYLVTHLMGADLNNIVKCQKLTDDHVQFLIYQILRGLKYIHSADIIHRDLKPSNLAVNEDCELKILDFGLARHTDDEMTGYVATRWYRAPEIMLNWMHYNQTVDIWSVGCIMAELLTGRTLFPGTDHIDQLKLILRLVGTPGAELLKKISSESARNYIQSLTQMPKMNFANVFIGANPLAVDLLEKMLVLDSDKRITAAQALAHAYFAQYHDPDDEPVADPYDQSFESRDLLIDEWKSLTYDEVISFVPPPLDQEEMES
Method: Hela cells expressing the p38α target protein as a C-terminal fusion with a small peptide that includes the Promega HiBit® amino acid sequence were used as the starting material for lysate generation.
A solution containing 1:100 LgBiT® Protein and 1:100 Nano-Glo HiBiT® Lytic Substrate in PBS was created in a suitable volume. […] After incubation the plate was read on a luminescence detecting plate reader (3600 gain, 470-480 emission) to determine well signals.

p38α MAPK [2] = target: T2, p38α MAPK; experiment: Whole cell protein stability assay, AlphaLISA endpoint, intact HEK293T cells, EA titration (Example 4); format: cell-based; set-up: endogenous in cells; host or cells: HEK293T; settings: 10 μM compound as printed, vs DMSO only
Method: HEK293T cells were grown in media (RPMI (Gibco 11835-063), 10% FCS (Gibco F7524) 1% Glutamax (Gibco 35050-061)) to approximately 85% confluence in a flask before harvesting from the surface using 3 ml Tryple Select (Gibco 12563011), washing cell pellet once in DPBS (Gibco 14190-094) and resuspending in media. Cells were counted and diluted in media to a density of 1×10^7 cell/ml.
To run the protein stability assay 5 μl of cells at a density of 1×10^7 cell/ml was added to each well of a 384-well White ProxiPlate ([…]) or an equivalent volume of DMSO dosed using the Labcyte ECHO. The contents of the plate were settled by a short pulse spin, sealed with a TopSeal-A Plus plate seal (Perkin Elmer 6050185) and the compound/lysate mixes incubated at ambient temperature for 30 minutes to 1 hour to allow potential target engagement by compound to occur. While incubating, fresh 100% EA (Ethanol (10437341) and Acetic Acid (10365020), all from Fisher Scientific in a ratio of 100:0.1) denaturant was made in a glass bottle ready for use. 100% EA was used to produce a titration curve of denaturant. […]
The dilution series to be added was made up as a 2× stock so that when 5 μl of denaturant was added to 5 μl lysate the final volume was 10 μl. […] After incubation the plate was read on a fluorescence detecting plate reader (Excitation 680 nm, Emission 615 nm) to determine well signals.
Target sequence in this assay (Q16539 whole entry): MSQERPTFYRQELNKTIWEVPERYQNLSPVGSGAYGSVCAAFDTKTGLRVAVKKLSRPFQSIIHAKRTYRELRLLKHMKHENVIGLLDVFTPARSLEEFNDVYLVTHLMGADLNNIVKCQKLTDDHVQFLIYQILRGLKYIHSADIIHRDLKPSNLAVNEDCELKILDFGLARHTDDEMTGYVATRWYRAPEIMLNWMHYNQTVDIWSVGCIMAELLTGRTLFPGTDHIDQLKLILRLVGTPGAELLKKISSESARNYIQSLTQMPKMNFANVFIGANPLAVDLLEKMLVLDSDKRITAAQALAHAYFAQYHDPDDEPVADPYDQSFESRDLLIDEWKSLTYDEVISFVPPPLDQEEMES

p38α MAPK [3] = target: T2, p38α MAPK; experiment: Protein stability assay, AlphaLISA endpoint, HEK293T cell lysate, AEA titration (Example 1); format: binding; set-up: endogenous in cells; host or cells: HEK293T; settings: compound at 10 or 100 μM, vs DMSO only
Method: Lysate from HEK293T cells grown in continuous culture at 5% CO2/37° C. in full growth media (RPMI (Gibco 11835-063), 10% FCS (Gibco F7524) 1% Glutamax (Gibco 35050-061)) was produced by growing cells in flasks to 85% confluence, removing from the surface using 3 ml Tryple Select (Gibco 12563011), centrifuging (1000 rpm for 4 minutes) to pellet, washing cell pellet two times in DPBS (Gibco 14190-094), resuspending in 1 ml of DPBS (Gibco 14190-094) containing 1× HALT Protease and Phosphatase inhibitor cocktail (Thermo Scientific 78440) per flask and lysing by three cycles of a liquid nitrogen freeze followed by thawing at room temperature. […]
To run the protein stability assay, an aliquot of HEK293T cell lysate at 4 μg/μl was thawed at room temperature and 2 μl added to each well of a 384-well White ProxiPlate (Perkin Elmer 6008280) containing […], 100 μM AMG-548 (Bio-Techne 3920/10) or an equivalent volume of DMSO dosed using the Labcyte ECHO. […] While incubating, fresh 100% AEA (Acetone (11443733), Ethanol (10437341) and Acetic Acid (10365020), all from Fisher Scientific in a ratio of 50:50:0.1) denaturant was made in a glass bottle ready for use. An aliquot of 100% AEA was diluted to 50% in DPBS (Gibco 14190-094) ready to produce titration curves of denaturant. […]
Target sequence in this assay (Q16539 whole entry): as above

T1 sequence (Q16539 whole entry): as above

Cn1c(NC[C@@H](N)Cc2ccccc2)nc(-c2ccncc2)c(-c2ccc3ccccc3c2)c1=O [AMG-548]
single-well signal vs minimum signal (22% EA, DMSO vehicle) (p38α): higher Maximum effect signal | stabilisation of p38α MAPK target protein (shift of denaturant titration curves) (p38α MAPK [1]; 100 μM compound, AEA and EA titration, HiBiT or AlphaLISA endpoints, vs DMSO only): clear shift between the titration curves | effect of compound on protein unfolding, concentration response curves (p38α MAPK [1]; HiBiT endpoint, fixed dose of denaturant): clear dose dependent effect | stabilisation of p38α MAPK protein (shift in protein denaturation curves) (p38α MAPK [2]): stabilisation of p38α MAPK protein compared to DMSO only treatment | stabilisation of p38α MAPK protein (shift in protein denaturation curves) (p38α MAPK [3]): stabilisation of p38α MAPK protein in a dose dependent manner
